In patent publication US6461610B1, “Methods for modifying cell motility using factor VIIa or inactivated factor VIIa” (Novo Nordisk A/S, priority 1997, dated 2002):

Key:
[1] = tested on: human foreskin fibroblasts AG1523; assay: Chemotaxis assay, modified Boyden chamber, PDGF-BB induced migration of fibroblasts; format: cell-based; details: for effect of inhibitor on FVIIa/TF hyperchemotactic response to PDGF-BB: 30 min pretreatment; for migration of fibroblast in response to PDGF without FVIIa: without the ligand FVIIa
Method: Chemotaxis assay. The migration response of fibroblasts was assayed by means of the leading front technique in a modified Boyden chamber, as previously described (Nister et al., Cell 52, 791-799 (1988); Siegbahn et al. J. Clin. Invest. 85, 916-920 (1990)). Micropore filters (pore size 8 μm) were coated with a solution of type-i collagen at room temperature over night. The filters were air dried for 30 minutes immediately before use.
Human foreskin fibroblasts AG1523 were grown to confluence in Eagle's MEM supplemented with 10% FBS. The cells were detached by trypsinization (2.5 mg/ml for 10 minutes at 37° C.) and suspended in Eagle's MEM with 10% FBS. The fibroblasts were incubated for 10 minutes with or without FVIIa or FFR-FVIIa before assay. One hundred microliters of the cell suspension (2×10^5 cells/ml) was added above the filter of the Boyden chamber. PDGF-BB was diluted in assay media (Eagle's MEM with 10% FBS) and added below the filter in the chamber. The cells were incubated for 6 hours at 37° C. in a humidified chamber containing 95% air/5% CO2. FVIIa or FFR-FVIIa were present during the entire experiment. The filters were then removed, fixed in ethanol, stained with Mayer's Hemalun, and mounted. Migration was measured as the distance of the two furthest migrating fibroblast nuclei of one high-power field (12.5×24) in focus. The migration distance in each filter was calculated as the mean of the readings of at least three different parts of the filter. Experiments were performed with two to four separate filters for each concentration of chemoattractant. For each set of experiments, the migration of fibroblasts toward the assay media served as control. In cases when anti-TF monoclonal antibodies or inhibitors to coagulation factors, TAP and Hirudin, were used, cells were preincubated for 10 minutes with these agents, then with or without FVIIa or FFR-FVIIa before the chemotaxis assay was performed. Antibodies, TAP or Hirudin were also present during the entire chemotaxis experiment. In experiments where the effects on the migration response of different inhibitors, LY294002, U73122 or U73343, were tested, cells were preincubated for 30 minutes with the inhibitors at indicated concentrations, and the inhibitors were also present throughout the experiments.
Fibroblasts expressing active TF (FIG. 11) were incubated with 100 nM of FVIIa and seeded in the upper part of the modified Boyden chamber; while media containing 10% FBS and PDGF-BB at different concentrations were added below the […] micropore filter. The migration of the cells under conditions where medium containing 10% FBS without PDGF-BB was added below the filter was used as a measure of random migration, and calculated as 100% migration.

human TF = assay: SRE/STAT luciferase reporter (KZ136) in BHK cells stably transfected with human TF; format: cell-based; details: 50 μM PD98059 for one hour prior to 100 nM FVIIa
Description: BHK cells with and without stably transfected TF were stably transfected with KZ136 (reporter construct encoding 2×STAT1,3), 2×(STAT4,5,6) and a serum response element (SRE) upstream to a luciferase reporter gene) were stimulated with FVIIa. Only cells expressing TF responded to FVIIa in a dose dependent manner.
PD98059 is a specific inhibitor of MEK1, a kinase specifically involved in the p44/p42 MAPK cascade.
BHK cells stably transfected with the human TF and the reporter plasmid KZ136 were grown to 90% confluence, starved in DMEM with 0.1% FCS for 16 hours and then stimulated with FVIIa or FVIIai (FIG. 8). […] Also shown in FIG. 8 is an experiment where competition between FVIIa and FVIIai was studied. FVIIai was added to the cells 1 hour prior to stimulation with 20 nM FVIIa. The response induced by 20 nM FVIIa was inhibited 27%, 59%, 77%, and 91% by the addition of 20 nM, 50 nM, 100 nM, and 500 nM FVIIai, respectively.

[2] = target: T1, factor VIIa/tissue factor complex (Homo sapiens, UniProt P08709); assay: TF-stimulated factor VIIa activity with chromogenic substrate S2288, zinc ion inhibition; format: biochemical; details: 0.2 mM cystin dihydroxamate; 10 nM FVIIa, 50 nM TF1-218
T1 construct: TF1-218 from Dr W. Kisiel, University of New Mexico
T1 sequence (P08709 61-212 limits assumed): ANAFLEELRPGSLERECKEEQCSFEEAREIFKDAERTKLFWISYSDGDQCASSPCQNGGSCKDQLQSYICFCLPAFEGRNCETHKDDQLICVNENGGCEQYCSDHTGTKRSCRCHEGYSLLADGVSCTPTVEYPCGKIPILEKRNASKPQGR
T1 sequence (P08709 213-466 limits assumed): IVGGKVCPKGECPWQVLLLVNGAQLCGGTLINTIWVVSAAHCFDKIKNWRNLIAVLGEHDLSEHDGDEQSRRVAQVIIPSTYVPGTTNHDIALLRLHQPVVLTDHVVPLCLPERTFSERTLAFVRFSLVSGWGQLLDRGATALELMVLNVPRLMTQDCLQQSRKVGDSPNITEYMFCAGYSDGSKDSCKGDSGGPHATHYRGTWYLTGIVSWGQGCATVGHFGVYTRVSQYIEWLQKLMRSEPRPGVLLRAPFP
Method: Factor VIIa activity was measured with the chromogenic substrate S2288 (H-D-Ile-Pro-Arg-p-nitroanilide). The activity of 10 nM FVIIa in the presence of 50 nM TF1-218 (Dr W. Kisiel, University of New Mexico, Albuquerque, N. Mex.) was measured in buffer containing 50 mM TrisCl pH 7.4 0.1 M NaCl, 1 mM CaCl2, 0.05% Tween 20 and 0.4 mM S2288. The activity was measured at room temperature as the change in absorbance at 405 nm.

MAPK p44/42 = assay: Western blot of phosphorylated MAPK p44/42 in BHK cells stably transfected with human TF; format: cell-based; details: 100 nM for 5 min
Method: In this set of experiments with TF transfected BHK, ECV-304 and MDCK cell lines two antibodies raised against the MAPK were used, one targeting activated as well as non-activated forms of MAPK, and another, targeting only the activated (phosphorylated) form of MAPK.
BHK cells stable transfected with human TF were grown to 90% confluence and starved in DMEM with 0. 1% FCS for 24 hours prior to stimulation with FVIIa. Samples for Western blotting were sampled at 0, 3, 5, 7, 10, 20 and 40 minutes after addition of 100 nM FVIIa. […] Over the next 10 minutes the response declined to reach the background level at about 20 minutes after addition of FVIIa.
In this set of experiments with TF transfected BHK cell lines we used a phospho-specific antibody against phosphorylated (Thr202/Tyr204) p44/42 MAPK and an antibody targeting total p44/42 MAPK (New Englands Biolabs, Beverly, Mass.).
BHK cells stable transfected with human TF were grown to 90% confluence and starved in DMEM with 0.1% FCS for 24 hours prior to stimulation. In FIG. 9A the cells were stimulated with 100 nM FVIIa for 0, 3, 5, 7, 10 and 40 minutes before the cells were lysed and samples for Western blotting were taken.
The results shown in FIG. 9B were obtained when BHK(+TF) cells were exposed to 100 nM FVII, FVIIa, FVIIai, [Ala344]FVII or FXa for 5 min. […]

[3] = 100 nM FVIIa, 0.1 ng/ml PDGF-BB

COc1ccc2c(c1)CC[C@@H]1[C@@H]2CC[C@]2(C)[C@@H](NCCCCCCN3C(=O)C=CC3=O)CC[C@@H]12 [Example U73122]
inhibitor concentration giving total inhibition of hyperchemotactic response [1, 3]: 1 µM
effect of inhibitor on FVIIa/TF hyperchemotactic response to PDGF-BB [1, 3]: inhibited

COc1ccc2c(c1)CC[C@@H]1[C@@H]2CC[C@]2(C)[C@@H](NCCCCCCN3C(=O)CCC3=O)CC[C@@H]12 [Example U73343]
effect of inhibitor on FVIIa/TF hyperchemotactic response to PDGF-BB [1, 3]: No effect

COc1cccc(-c2cc(=O)c3ccccc3o2)c1N [PD98059]
reporter response to 100 nM FVIIa after inhibitor pre-treatment (human TF): did not respond

N[C@@H](CSSC[C@H](N)C(=O)NO)C(=O)NO [cystindihydroxamate, L-Cystine dihydroxamate]
effect of zinc ions to abolish FVIIa-TF complex formation / activity in presence of chelator [2]: profoundly potentiated

Hirudin
effect on FVIIa/TF induced hyperchemotaxis ([1]; 5 U/ml Hirudin, 100 nM FVIIa): had no any effect
migration of fibroblast in response to PDGF without FVIIa [1]: did not influence

TAP: Tick anticoagulant peptide, specifically blocks the active site of FXa (YNRLCIKPRDWIDECDSNEGGERAYFRNGKGGCDSFWICPEDHTGADYYSSYRDCFNACI; UniProt P17726 1-60, looked up)
effect on enhanced migration response transduced by FVIIa/TF ([1]; 0.2-10 μM TAP, 100 nM FVIIa): not blocked
migration of fibroblast in response to PDGF without FVIIa [1]: did not influence

B1: [Ala344]FVII: FVII with Ala at catalytic residue 344 (protein, UniProt P08709 1-466, looked up, variant S344A)
chain: MVSQALRLLCLLLGLQGCLAAGGVAKASGGETRDMPWKPGPHRVFVTQEEAHGVLHRRRRANAFLEELRPGSLERECKEEQCSFEEAREIFKDAERTKLFWISYSDGDQCASSPCQNGGSCKDQLQSYICFCLPAFEGRNCETHKDDQLICVNENGGCEQYCSDHTGTKRSCRCHEGYSLLADGVSCTPTVEYPCGKIPILEKRNASKPQGRIVGGKVCPKGECPWQVLLLVNGAQLCGGTLINTIWVVSAAHCFDKIKNWRNLIAVLGEHDLSEHDGDEQSRRVAQVIIPSTYVPGTTNHDIALLRLHQPVVLTDHVVPLCLPERTFSERTLAFVRFSLVSGWGQLLDRGATALELMVLNVPRLMTQDCLQQSRKVGDSPNITEYMFCAGYSDGSKDSCKGDAGGPHATHYRGTWYLTGIVSWGQGCATVGHFGVYTRVSQYIEWLQKLMRSEPRPGVLLRAPFP
activation (phosphorylation) of p44/42 MAPK (MAPK p44/42): no significant activation
